Read-outs that look alike come from different tables or passages of the source. Marks after values point to notes of the source that are not given here. One block for each compound: values may come before it.
How the values were obtained:
[1] = Complex formation equilibria with Ga(III) (potentiometric–spectrophotometric and in-batch acidic UV titrations); type: physicochemical; details: for pGa, corrected value: from corrected log KML, [L] = 10 μM, [M] = 1 μM, pH = 7.4; for log KML (M = Ga^3+), corrected value: refit of potentiometric curve in competition with [Ga(OH)4]−, I = 0.15 M NaCl, 25 °C (Supporting Information)
Experimental: Protonation constants and metal stability constants were determined through a multitechnique approach. Combined potentiometric–spectrophotometric titrations were carried out using a Metrohm Titrando 809 equipped with a Ross combined electrode and a Metrohm Dosino 800. The glass cell containing the solutions to be titrated was maintained at a constant temperature, 25 °C, and connected with an inlet–outlet tube for nitrogen gas (purified through a 10% NaOH solution) to exclude CO2 prior to and during the titration. […] The calibrations involved HCl standard being titrated with carbonate-free titrant NaOH(aq) (0.15 M), and the ionic strength was maintained constant to 0.16 M by the addition of a NaCl solution. The NaOH was previously standardized against freshly dried potassium hydrogen phthalate crystals. Copper and gallium metal-ion solutions used in metal complexation experiments were prepared by the dilution of AA standards. The exact amount of acid present was determined by the titration of equimolar solutions of either Cu(II) or Ga(III) and Na2H2EDTA using Gran plotting.[41]
Complex formation equilibria of either Ga(III) or Cu(II) with H2L^1 were studied using two different methods. […] The pH in the most acidic samples was calculated from the H^+ concentration when the pH was below the electrode threshold. From very acidic pH, both Cu(II) and Ga(III) complexes formed, and the first protonated complex species ([Cu(H3L^1)]^3+ and [Ga(H2L^1)]^3+) were determined through the fitting of these experiments with the HypSpec2014 program[42] (Figures S50–S52 and S56–S58 and Table S3). […] Dissociation constants corresponding to the hydrolysis of Ga(III) and Cu(II) aqueous ions included in the calculations were taken from Baes and Mesmer.[46] Complexation of H2L^1 with Ga(III) was further corroborated by the findings of ^1H NMR experiments at different pD values (Figures 3 and S26). Similarly, complexation of H2L^2 with Cu(II) or Ga(III) was studied by in-batch acidic UV experiments in a set of solutions prepared with the experimental conditions [H2L^2] = [Ga^3+] = 1 × 10^–4 M; [H2L^2] = [Cu^2+] = 7 × 10^–4 M, and the pH was adjusted by the addition of different amounts of standardized HCl. The ionic strength was maintained constant at 0.16 M when possible by the addition of NaCl. The first-formed complex species ([Cu(HL^2)]^+, [CuL^2], and [GaL^2]^+) were determined through fitting of the experimental data (Figures S53–S55 and S59–S61 and Table S3). […]

[2] = cited from earlier work; for pGa: [L] = 10 μM, [M] = 1 μM, pH = 7.4
[3] = cited from earlier work
[4] = cited from earlier work; remark: listed apart in the source
[5] = Complex formation equilibria with Cu(II) (potentiometric–spectrophotometric and in-batch acidic UV titrations); type: physicochemical; details: literature chelators, no reference given for the value; [L] = 10 μM, [M] = 1 μM, pH = 7.4
Experimental: Protonation constants and metal stability constants were determined through a multitechnique approach. Combined potentiometric–spectrophotometric titrations were carried out using a Metrohm Titrando 809 equipped with a Ross combined electrode and a Metrohm Dosino 800. The glass cell containing the solutions to be titrated was maintained at a constant temperature, 25 °C, and connected with an inlet–outlet tube for nitrogen gas (purified through a 10% NaOH solution) to exclude CO2 prior to and during the titration. Daily electrode calibrations were carried out at proton ion concentration, and the results were analyzed with the Gran[41] procedure to obtain the standard potential (E°) and the ionic product of water pKw at T = 25 °C and I = 0.16 M NaCl. […] The exact amount of acid present was determined by the titration of equimolar solutions of either Cu(II) or Ga(III) and Na2H2EDTA using Gran plotting.[41]
Complex formation equilibria of either Ga(III) or Cu(II) with H2L^1 were studied using two different methods. […] The pH in the most acidic samples was calculated from the H^+ concentration when the pH was below the electrode threshold. From very acidic pH, both Cu(II) and Ga(III) complexes formed, and the first protonated complex species ([Cu(H3L^1)]^3+ and [Ga(H2L^1)]^3+) were determined through the fitting of these experiments with the HypSpec2014 program[42] […]

[6] = Protonation constants by combined potentiometric–spectrophotometric, in-batch acidic UV and 1H NMR titrations; type: physicochemical; details: 25 °C, I = 0.16 M NaCl
Experimental: Protonation constants and metal stability constants were determined through a multitechnique approach. Combined potentiometric–spectrophotometric titrations were carried out using a Metrohm Titrando 809 equipped with a Ross combined electrode and a Metrohm Dosino 800. The glass cell containing the solutions to be titrated was maintained at a constant temperature, 25 °C, and connected with an inlet–outlet tube for nitrogen gas (purified through a 10% NaOH solution) to exclude CO2 prior to and during the titration. Daily electrode calibrations were carried out at proton ion concentration, and the results were analyzed with the Gran[41] procedure to obtain the standard potential (E°) and the ionic product of water pKw at T = 25 °C and I = 0.16 M NaCl. The calibrations involved HCl standard being titrated with carbonate-free titrant NaOH(aq) (0.15 M), and the ionic strength was maintained constant to 0.16 M by the addition of a NaCl solution. The NaOH was previously standardized against freshly dried potassium hydrogen phthalate crystals. Copper and gallium metal-ion solutions used in metal complexation experiments were prepared by the dilution of AA standards. The exact amount of acid present was determined by the titration of equimolar solutions of either Cu(II) or Ga(III) and Na2H2EDTA using Gran plotting.[41]
Protonation equilibria of either H2L^1 or H2L^2 were studied by titrations of solutions containing [H2L^1] = 9.56 × 10^–4 M or [H2L^2] = 5.87 × 10^–4 M at 25 °C and 0.16 M NaCl ionic strength using a potentiometric–spectrophotometric procedure. In each titration (100–150 equilibrium points and pH range 2–11), the electromotive force values were recorded after 2 min of each NaOH addition and the spectrophotometer was synchronized to obtain a UV spectrum for each pH data point. Spectra were recorded in the 200–400 nm wavelength range with a 0.2-cm-path-length optic dip probe connected to a Varian Cary 60 UV–vis spectrophotometer. The obtained spectrophotometric and potentiometric data were analyzed with HypSpec2014([42]) and HyperQuad2013([43]) to obtain the protonation constants and molar absorptivities of the different absorbing species of the ligands (Table 3 and Figures S42–S49 and S51B). […] Additional ^1H NMR titrations were carried out for H2L^1 to better understand the protonation sequence and their assignments (Figures S45 and S46). A set of H2L^1 solutions (4 × 10^–3 M) in D2O were prepared by the addition of DCl or NaOD, and their ^1H NMR spectra were recorded. The pH values of the samples were then measured with a microelectrode (Mettler Toledo), which was calibrated daily at H^+ concentration as described above. The pH was corrected for the deuterium isotopic effect (pD = pHreading + 0.4).[44]

[7] = Table S4 footnote c, ref 5 (SI)
[8] = Table S4 footnote d, ref 6 (SI)
[9] = Table S4 footnote e, ref 7 (SI)
[10] = Table S4 footnote f, ref 8 (SI)

Compound: O=C(O)c1cccc(CNCCNCc2cccc(C(=O)O)n2)n1 [H2dedpa, 1,2-bis[[(6-carboxypyridin-2-yl)methyl]amino]ethane]
- log KML (M = Cu^2+) [3]: 19.16(5) ^d
- pCu ([3]; −log [Mfree] at [L] = 10 μM, [M] = 1 μM, pH = 7.4): 18.5 ^d
- pGa, corrected value [1]: 22.2 ^e
- log KML (M = Ga^3+), corrected value [1]: 22.9(1) ^e
- log KHqL, H2L + H+ ⇆ H3L [4, 7]: 3.04
- log KHqL, H3L + H+ ⇆ H4L [4, 7]: 2.59
- log KHqL, HL + H+ ⇆ H2L [4, 7]: 6.31
- log KHqL, L + H+ ⇆ HL [4, 7]: 9.00
- log KHqL, H2L + H+ ⇆ H3L [4, 8]: 3.08 (2)
- log KHqL, H3L + H+ ⇆ H4L [4, 8]: 2.33 (3)
- log KHqL, HL + H+ ⇆ H2L [4, 8]: 6.18 (2)
- log KHqL, L + H+ ⇆ HL [4, 8]: 8.69 (1)

Compound: O=C([O-])CN1CCN(CC(=O)[O-])CCN(CC(=O)[O-])CCN(CC(=O)[O-])CC1.[Ga+3] [Ga^III-DOTA]
- pGa [2]: 18.5
- log KML (M = Ga^3+) [2]: 21.33

Compound: N,N′-Bis(3-aminopropyl)-N,N′-bis(6-carboxypyridin-2-yl)-1,2-diaminoethane [H2L^1]
- log KHqL, H2L + H+ ⇆ H3L (log K3) [6]: 6.78
- log KHqL, H3L + H+ ⇆ H4L (log K4) [6]: 4.23
- log KHqL, H4L + H+ ⇆ H5L (log K5) [6]: 2.79
- log KHqL, H5L + H+ ⇆ H6L (log K6) [6]: 2.01
- log KHqL, HL + H+ ⇆ H2L (log K2) [6]: 9.91
- log KHqL, L + H+ ⇆ HL (log K1) [6]: 10.86

Compound: O=C(O)CN1CCN(CC(=O)O)CCN(CC(=O)O)CCN(CC(=O)O)CC1 [DOTA, 1,4,7,10-tetraazacyclododecane-1,4,7,10-tetraacetic acid]
- log KML (M = Cu^2+) [3]: 22.21(1) ^f
- log KML (M = Ga^3+) [2]: 21.33 ^g
- log KHqL, H2L + H+ ⇆ H3L [4, 10]: 4.548 (3)
- log KHqL, H3L + H+ ⇆ H4L [4, 10]: 4.130 (3)
- log KHqL, HL + H+ ⇆ H2L [4, 10]: 9.680 (1)
- log KHqL, L + H+ ⇆ HL [4, 10]: 12.09 (4)
- ∑log KHqL [4, 10]: 30.448
- pCu [5]: 16.2

The next lines start with results.

- pGa, corrected value [1]: 22.2
- log KML (M = Ga^3+), corrected value [1]: 22.9(1)
Compound: O=C([O-])c1cccc(CNCCNCc2cccc(C(=O)[O-])n2)n1.[Ga+3] [[Ga(dedpa)]^+]
- log KML (M = Ga^3+) [2]: 28.11(8)

- pCu [5]: 19.2
Compound: O=C(O)CN1CCN(CC(=O)O)CCN(CC(=O)O)CC1 [NOTA, 1,4,7-triazacyclononane-1,4,7-triacetic acid]
- log KML (M = Cu^2+) [3]: 21.6 ^d
- pGa [2]: 27.9 ^g
- log KML (M = Ga^3+) [2]: 30.98 ^g
- log KHqL, H2L + H+ ⇆ H3L [4, 9]: 3.163(3)
- log KHqL, H3L + H+ ⇆ H4L [4, 9]: 1.955(3)
- log KHqL, HL + H+ ⇆ H2L [4, 9]: 6.032(4)
- log KHqL, L + H+ ⇆ HL [4, 9]: 10.773(7)
- ∑log KHqL [4, 9]: 21.923
